Experimental data published in PubChem BioAssay AID1645864 (Buhrlage Lab, Dana-Farber Cancer Institute and Novartis …, 2021).
Activity calls are given as the source filed them.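 Rule for the calls: active = maximal inhibition of USP17 at or above 30% in the confirmation dose-response, a value not among the printed readouts; inactive = the rest.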

Molecular target: Ubiquitin carboxyl-terminal hydrolase 17-like protein 5 (Homo sapiens) (UniProt A8MUK1)
Assay: ubiquitin-specific protease 17 DUB inhibitors, concentration-effect assay, cell-free, verification of initial screening actives (AID 1645864)
Details: purified USP17, ubiquitin-rhodamine cleavage fluorescence, 3 h

Chain of Ubiquitin carboxyl-terminal hydrolase 17-like protein 5 (Homo sapiens) (A8MUK1 whole entry, looked up): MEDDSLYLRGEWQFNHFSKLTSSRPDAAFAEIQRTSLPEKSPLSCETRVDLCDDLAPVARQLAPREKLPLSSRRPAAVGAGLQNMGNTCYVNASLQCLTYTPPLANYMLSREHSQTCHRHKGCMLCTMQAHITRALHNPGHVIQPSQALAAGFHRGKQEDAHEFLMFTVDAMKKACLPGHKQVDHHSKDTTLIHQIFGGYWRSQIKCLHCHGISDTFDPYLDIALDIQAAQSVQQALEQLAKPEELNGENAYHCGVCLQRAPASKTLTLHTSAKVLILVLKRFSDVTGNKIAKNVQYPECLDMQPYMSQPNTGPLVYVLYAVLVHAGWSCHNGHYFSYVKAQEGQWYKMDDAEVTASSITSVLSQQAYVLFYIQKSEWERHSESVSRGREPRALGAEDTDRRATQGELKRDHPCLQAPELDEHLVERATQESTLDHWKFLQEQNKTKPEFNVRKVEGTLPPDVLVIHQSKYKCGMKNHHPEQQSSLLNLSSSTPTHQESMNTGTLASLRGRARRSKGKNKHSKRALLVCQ

Row | IC50 | Structure (SMILES)
1 | > 50 µM (inactive) | CC(C)Cc1nc2oc3c(N(C)CCO)ncnc3c2c2c1CCC2
2 | 19.3 µM | O=C(Nc1cc(-c2cccnc2)no1)c1ccc(F)c(F)c1
3 | 15.2 µM | Oc1ccc(-c2nc3ccc(Cl)cn3c2NC2CCCCC2)cc1
4 | 3.55 µM | CC1=CC(=O)C(C2=C(O)C(=O)C(C)=CC2=O)=C(O)C1=O
5 | > 50 µM (inactive) | NS(=O)(=O)c1cccc(NC(=O)CN2CCCc3ccccc32)c1
6 | > 50 µM (inactive) | O=C(NCC1CC1)C1CCCN(c2ccc(-c3ccccc3)nn2)C1 (stereo not given)
7 | > 50 µM (inactive) | COc1ccc(CCn2cnc3c4ccccc4n(C)c3c2=O)cc1OC
8 | > 50 µM (inactive) | COc1cccc2c1OCC(NS(=O)(=O)c1cc(C)ccc1C)C2 (stereo not given)
9 | > 50 µM (inactive) | O=C(CSc1nnc(-c2ccc3c(c2)OCO3)n1-c1ccccc1)OCC(=O)c1ccccc1
10 | 7.77 µM | O=C(Cn1c(=O)n(Cc2ccc(F)cc2)c(=O)c2sccc21)Nc1cccc(Cl)c1
11 | > 50 µM (inactive) | Cc1cc(O)c(=O)cc2c1C[C@H]1CC(C)(C)/C=C/C[C@@]3(C)Oc4cc(=O)c(O)cc(C)c4C[C@@H]3C[C@H](O)[C@]1(C)O2
12 | 28.7 µM | O=C(NCCc1ccccc1F)c1cn2cc(Cl)ccc2n1
13 | > 50 µM (inactive) | O=C(NC1CC1)c1ccnn1-c1ccc2ccc(-c3ccncc3)cn12
14 | > 50 µM (inactive) | C[C@H](NC(=O)Cc1ccccc1F)c1nc2cc(-c3ccccc3F)ncn2n1
15 | 1.46 µM | Oc1sc(C=Nc2cc(Cl)ccc2Cl)c2ccccc12
16 | > 50 µM (inactive) | COc1ccc(NC(=O)c2ccc(-n3nnnc3SC)cc2)cc1Cl
17 | 40.9 µM | CCCN1C=NS(=O)(=O)c2cc(C(=O)Nc3ccc(OC)c(Cl)c3)ccc21
18 | > 50 µM (inactive) | O=S(=O)(c1cccc2cccnc12)N(CCc1ccccc1)C1CCN(CCc2ccc(Cl)cc2)CC1
19 | > 50 µM (inactive) | CCOC(=O)c1cc2c(ccn2C)n1CC(=O)N1CCc2ccccc2C1
20 | 24.6 µM | O=[N+]([O-])c1ccccc1C(c1c[nH]c2ccccc12)c1c[nH]c2ccccc12
21 | > 50 µM (inactive) | COc1ccc(NC(=O)c2nc3n(n2)-c2ccccc2S(=O)(=O)N3)cn1
22 | 5.27 µM | CC(C)(C)C(=O)Nc1ccc(C(=O)Nc2cccc(-c3nnc(-c4ccccc4)o3)c2)cc1
23 | > 50 µM (inactive) | O=C(Nc1nnc2n1CCCS2)c1cccc(Cl)c1
24 | > 50 µM (inactive) | O=[N+]([O-])c1ccc(NCC2COc3ccccc3O2)c(Cl)c1 (stereo not given)

Row | IC50 | Structure (SMILES)
25 | > 50 µM (inactive) | Fc1ccc(Nc2nc(Nc3cccc(F)c3)nc3nccnc23)cc1
26 | > 50 µM (inactive) | O=C(NCc1ccco1)c1ccc2c(c1)N(Cc1cccc(F)c1)C(=O)c1ccccc1S2
27 | > 50 µM (inactive) | COCCN(C1CCN(CCc2ccc(Cl)cc2)CC1)S(=O)(=O)c1cccc2cccnc12
28 | 9.15 µM | O=c1[nH]c(C2CCN(S(=O)(=O)c3ccc(S(=O)(=O)NC4CCCCC4)cc3)CC2)nc2c1nnn2Cc1c(Cl)cccc1Cl
29 | 35.5 µM | O=C(CNc1nc(Nc2ccccc2F)nc(Nc2ccccc2F)n1)Nc1ccccc1
30 | 0.407 µM | Cc1cc(O)c2c3c(c(O)cc2c1)C(=O)c1c(O)cccc1C3=O
31 | 44.9 µM | O=C(O)c1ccc(C2Cc3c([nH]c(=O)[nH]c3=O)O2)cc1 (stereo not given)
32 | 33.7 µM | O=C(Cn1nnc(-c2ccc(F)cc2)n1)NCCc1ccccc1
33 | 1.64 µM | Nc1c(C(=O)Nc2ccc3c(c2)OCO3)sc2nc(-c3cccnc3)ccc12
34 | 1.57 µM | COc1cc(C)cc2c1C(=O)c1c(cc(O)c(Cl)c1O)C2=O
35 | > 50 µM (inactive) | COc1cc(OC)cc(C(=O)Nc2cnc(-c3ccccc3)nc2)c1
36 | 6.53 µM | COc1ccc(-c2nc(-c3nnn(Cc4ccc(F)cc4)c3C)no2)c(OC)c1
37 | 35.2 µM | Cc1ccccc1NC(=O)c1cc(S(=O)(=O)N2CCCCCC2)ccc1Cl
38 | > 50 µM (inactive) | COc1ccc(NC2c3ccccc3C(=O)N2c2ccccn2)cc1 (stereo not given)
39 | 18.7 µM | COc1ccc(CCNC(=O)c2cn(-c3ccc(F)cc3)nn2)cc1OC
40 | > 50 µM (inactive) | COC(=O)c1ccc(Cn2cnc3ccc(F)cc3c2=O)o1
41 | 44.1 µM | COc1ccccc1NC(=O)c1nn(-c2cccc(F)c2)c(OC)cc1=O
42 | 1.12 µM | Cc1nc2sc(C(=O)Nc3ccccc3Br)c(N)c2c(C)c1C
43 | 20.2 µM | C/C1=C/CC(O)/C=C/C(C)C(O)C(C)/C=C(\C)C(=O)c2c(O)c(C)cc3c2C(=O)C(Cl)=C(NC(=O)\C=C/C=C/C=C\C(C)C(O)CC1=O)C3=O (stereo not given)
44 | 29.5 µM | N#C/C(=C\c1ccc(OCc2cccc(C(=O)O)c2)cc1)c1ccc(F)cc1
45 | 7.35 µM | CCOC(=O)c1ccc(S(=O)(=O)N2CCC(C(=O)OC(C)C(=O)Nc3cccc([N+](=O)[O-])c3)CC2)cc1 (stereo not given)
46 | 43.4 µM | COc1cccc(/C=C/C(=O)Nc2ccc(C)c(Cl)c2)c1
47 | > 50 µM (inactive) | COc1ccc(C(=O)Nc2cc(-c3ccccn3)no2)cn1
48 | 24.1 µM | CCOc1ccc(Nc2cc(C(=O)NCCc3ccccc3)c3ccccc3n2)cc1

Row | IC50 | Structure (SMILES)
49 | > 50 µM (inactive) | Cc1ccc(OC(=O)c2cn(-c3ccccc3)nc2-c2cccnc2)cc1
50 | 1.68 µM | Cc1cc(C(=O)Nc2ccc3nc(N4CCN(c5ncccn5)CC4)cc(C)c3c2)ccc1[N+](=O)[O-]
51 | > 50 µM (inactive) | CC(C)CCCCCCCCCCC(=O)N(C)[C@H](CO)C(=O)N[C@H](C)C(=O)NCC(=O)N(C)C1C(=O)N[C@@H](C)C(=O)NC(C(=O)O)Cc2ccc(O)c(c2)-c2cc1ccc2O (stereo not given in full)
52 | > 50 µM (inactive) | Cc1ccc2[nH]c(=O)c(CN(Cc3cccnc3)C(=O)c3cccc(Cl)c3)cc2c1
53 | > 50 µM (inactive) | NC(=O)CCC(=O)N[C@H]1C[C@H]2CN(Cc3ccccc3)c3ccccc3CN2C1
54 | 17.8 µM | COc1cccc(NC(=O)Cc2sc(Nc3cc(C)cc(C)c3)nc2O)c1
55 | 31.3 µM | COc1ccc(CCNC(=O)CSc2cn(CCNC(=O)c3ccc(F)cc3)c3ccccc23)cc1OC
56 | > 50 µM (inactive) | CC(C)Oc1ccc(C(=O)Nc2cccc(S(=O)(=O)N3CCCC3)c2)cc1
57 | > 50 µM (inactive) | COc1cccc(/C=C/C(=O)Nc2ccc(N3CCOCC3)cc2)c1OC
58 | > 50 µM (inactive) | Cc1ccccc1C(=O)NCCn1cc(SCC(=O)Nc2ccc3c(c2)OCCO3)c2ccccc21
59 | > 50 µM (inactive) | Cc1ccccc1NC(=O)Cn1cc(-c2nc(C3CC3)no2)ccc1=O
60 | 23.6 µM | Cc1cccc(N2C(=O)/C(=C\c3ccc4c(c3)OCCO4)c3ccccc3C2=O)c1
61 | 37.8 µM | NS(=O)(=O)c1ccc(NS(=O)(=O)c2ccc(NC(=O)Nc3ccc(Cl)cc3)cc2)cc1
62 | 18.9 µM | CC(C)c1cc(NCc2ccccc2)n2nc(-c3cccnc3)nc2n1
63 | 24.2 µM | COc1ccc(CC(=O)Nc2ccc3nc(N4CCOCC4)cc(C)c3c2)cc1
64 | 38.2 µM | O=C1NCCCC1Cc1ccc(-c2cccc(C(=O)N3CCc4ccccc4C3)c2)cc1 (stereo not given)
65 | 3.21 µM | CCC(=O)Nc1nc2cc(NC(=O)Nc3cc(C)cc(C)c3)ccc2s1
66 | 9.87 µM | Cc1ccc2c(c1)c(=O)c(C(=O)c1ccccc1)cn2CC(=O)Nc1ccccc1
67 | > 50 µM (inactive) | O=S(=O)(c1ccccc1Cl)N1CCN(c2ccc3nnc(-c4ccco4)n3n2)CC1
68 | > 50 µM (inactive) | Cc1cccc(O)c1-c1nc2c(-c3nc4c(C(=O)O)cccc4o3)cccc2o1
69 | 33.6 µM | COc1ccc(CN2CCCC23CCCN(C(=O)CCc2cccnc2)C3)cc1F (stereo not given)
70 | > 50 µM (inactive) | COC(=O)c1ccc(Cn2cnc3ccc(Br)cc3c2=O)o1
71 | > 50 µM (inactive) | O=C(CCc1nnc2n(Cc3ccc(F)cc3)c(=O)c3ccccc3n12)N1CCN(c2ccccn2)CC1
72 | > 50 µM (inactive) | Cc1ccc(NC(=O)c2cc(=O)n(C)c3c2c(=O)n(C)c(=O)n3C)c(C)c1

Row | IC50 | Structure (SMILES)
73 | 14.5 µM | O=C(Cn1cnc2c(oc3ccccc32)c1=O)NCc1ccccc1Cl
74 | 13.6 µM | CC[C@H](C)C[C@H]1CC[C@](O)([C@](C)(O)C(=O)N[C@@H]2C(=O)N3NCCC[C@@H]3C(=O)N(O)[C@@H](C)C(=O)NCC(=O)N3NCCC[C@H]3C(=O)N(O)[C@H](C)C(=O)O[C@H]2C(C)C)O[C@@H]1C
75 | 0.0729 µM | COc1ccc2cc3c(nc2c1)OC(=O)N(CCc1cccc(F)c1)C3
76 | > 50 µM (inactive) | Nc1nc(-c2ccc[nH]2)cs1
77 | > 50 µM (inactive) | CC(C)CCn1c(=O)c2ccccc2n2c(CCC(=O)NC3CCCCCC3)nnc12
78 | 41.3 µM | CN(C)c1cc(-n2cnc(C(=O)NCc3ccccc3Cl)c2)ncn1
79 | > 50 µM (inactive) | Cc1nc(Nc2ncc(C)s2)cc(C2CN(C(=O)Cc3ccccc3)CCO2)n1 (stereo not given)
80 | 47.4 µM | NS(=O)(=O)c1cc(C(=O)OCC(=O)NC2CCCc3ccccc32)ccc1Cl (stereo not given)
81 | > 50 µM (inactive) | Cc1ccccc1Cn1ccc(NC(=O)c2noc(C)c2[N+](=O)[O-])n1
82 | 42.5 µM | COc1ccc(NC(=O)CSc2nc(N)c3c4c(sc3n2)COC(C)(C)C4)cc1
83 | 29.2 µM | N#Cc1cccnc1N1CCN(C(=O)Nc2cccc3ccccc23)CC1
84 | 1.7 µM | O=C(COc1ccc2c(-c3ccccc3)cc(=O)oc2c1)Nc1cccnc1
85 | 20.8 µM | COc1ccc(-c2cc(N3CCC(NC(=O)c4ccccc4)C3)n[nH]2)cc1 (stereo not given)
86 | 4.67 µM | COc1ccc2c(c1)CCc1c-2n[nH]c1C(=O)Nc1cc(C)on1
87 | > 50 µM (inactive) | COc1cccc(-n2c(=O)[nH]c3c(C(N)=O)nc(-c4ccc(OCc5ccccc5)cc4)nc32)c1
88 | 31.7 µM | CCOc1ccc(CC(=O)Nc2ccc(-c3cn4cccnc4n3)cc2)cc1
89 | > 50 µM (inactive) | Cc1ccccc1Cn1cc(SCC(=O)Nc2ccc3c(c2)OCCO3)c2ccccc21
90 | > 50 µM (inactive) | O=C(c1cscn1)N1CCC2(CC1)CC1(CO2)Nc2ccccc2-n2cccc21 (stereo not given)
91 | 4.67 µM | COc1cccc(-c2cc(C(=O)Nc3cc(C)n(Cc4ccc(Cl)cc4)n3)no2)c1
92 | 6.77 µM | CC(C)Cc1nc2sc3c(NCc4ccccc4)ncnc3c2c2c1COC(C)(C)C2
93 | > 50 µM (inactive) | CC(C)(C)C(=O)NC(c1ccccc1)c1nnc(N2CCOCC2)o1 (stereo not given)

Row | Structure (SMILES) | IC50
94 | CC[C@@]1(O)C[C@H](OC2CC(N(C)C)C(OC3CC(O)C(OC4CCC(=O)C(C)O4)C(C)O3)C(C)O2)c2c(cc3c(c2O)C(=O)c2c(O)ccc(O)c2C3=O)[C@H]1C(=O)OC (stereo not given in full) | 2.51 µM
95 | COC1=C(C2=C(OC)C(=O)c3cc4c(c(O)c3C2=O)C(=O)OC(C)C4)C(=O)c2c(cc3c(c2O)C(=O)OC(C)C3)C1=O (stereo not given) | 0.0977 µM
